Experimental data published in patent US20250353891A1 (MEDIMMUNE LIMITED, priority 2022, published 2025).
Starred links: 1 amine or outer side, 2 acyl side, 3 side chain; linkers in the order of their positions; H or OH if unused. Non-standard residues stand in square brackets, D forms with d. Residues, ends and D or L forms follow the SMILES beside them. Groups on a side chain read outwards from the residue. *: point of attachment. C18 diacid = O=C(O)CCCCCCCCCCCCCCCCC(=O)*; γGlu = O=C(O)[C@H](CCC(=O)[*:2])N[*:1]; αMeF = C[C@](N)(Cc1ccccc1)C(=O)O; AEEA = NCCOCCOCC(=O)O; Aib = CC(C)(N)C(=O)O

Experiments:
[1] = target: human GLP-1 receptor (hGLP-1R) (Homo sapiens, UniProt P43220); experiment: cAMP production (HTRF) in CHO cells expressing hGLP-1R; assay type: cell-based; design: expressed in transfected cells; details: for EC50: Table 6, peptides modified at position 17, cAMP in CHO hGLP-1R cells, geometric mean, read-out: hGLP-1R EC50; for % Relative Potency Ratio: Table 6, % GLP-1R activity relative to GLP-1 / % GlucR activity relative to glucagon
Chain of human GLP-1 receptor (hGLP-1R) (P43220 24-463): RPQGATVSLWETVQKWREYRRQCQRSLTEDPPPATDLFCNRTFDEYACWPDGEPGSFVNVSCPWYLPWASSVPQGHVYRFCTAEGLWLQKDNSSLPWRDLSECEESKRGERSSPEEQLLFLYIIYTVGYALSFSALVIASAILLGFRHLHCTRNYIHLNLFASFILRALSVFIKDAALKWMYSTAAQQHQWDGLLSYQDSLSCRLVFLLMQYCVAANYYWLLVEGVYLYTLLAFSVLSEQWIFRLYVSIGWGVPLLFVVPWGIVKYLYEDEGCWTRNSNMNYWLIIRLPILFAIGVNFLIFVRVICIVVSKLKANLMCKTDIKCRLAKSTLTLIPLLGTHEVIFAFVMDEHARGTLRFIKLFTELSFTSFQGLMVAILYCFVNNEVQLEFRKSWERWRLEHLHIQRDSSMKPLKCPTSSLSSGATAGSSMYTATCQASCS
In short: (§1)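 Read-out: HTRF cAMP (anti-cAMP cryptate donor, cAMP-d2 acceptor in conjugate/lysis buffer), converted to % Delta F and fitted by 4-parameter logistic for EC50. Cell densities were 1×10^5 cells/mL (hGLP-1R) or 2×10^5 cells/mL (hGCGR). Stimulation lasted 30 min at room temperature.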

[2] = target: human glucagon receptor (hGCGR) (Homo sapiens, UniProt P47871); experiment: cAMP production (HTRF) in CHO cells expressing hGCGR; assay type: cell-based; design: expressed in transfected cells; details: Table 6, peptides modified at position 17; cAMP in CHO hGCGR cells; geometric mean; read-out: hGluc-R EC50
Chain of human glucagon receptor (hGCGR) (P47871 26-477): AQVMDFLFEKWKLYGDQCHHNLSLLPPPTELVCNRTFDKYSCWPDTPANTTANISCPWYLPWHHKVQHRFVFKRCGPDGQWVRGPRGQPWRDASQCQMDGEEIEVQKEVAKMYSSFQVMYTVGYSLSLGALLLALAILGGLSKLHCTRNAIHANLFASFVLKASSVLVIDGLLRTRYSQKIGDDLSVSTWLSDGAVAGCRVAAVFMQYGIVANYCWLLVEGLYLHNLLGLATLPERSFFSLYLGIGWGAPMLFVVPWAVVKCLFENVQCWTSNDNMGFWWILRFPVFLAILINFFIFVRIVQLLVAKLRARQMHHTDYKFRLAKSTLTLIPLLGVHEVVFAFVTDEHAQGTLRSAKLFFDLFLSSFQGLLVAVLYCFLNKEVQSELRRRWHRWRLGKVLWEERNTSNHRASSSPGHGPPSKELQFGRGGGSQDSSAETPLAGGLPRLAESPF
In short: as §1

Row | SMILES | EC50 [1] [nM] | % Relative Potency Ratio [1] | EC50 [2] [nM]
1 | CC(C)C[C@H](NC(=O)[C@H](Cc1c[nH]c2ccccc12)NC(=O)[C@H](CCCNC(=N)N)NC(=O)[C@@H](NC(=O)[C@H](Cc1ccccc1)NC(=O)[C@H](CC(=O)O)NC(=O)[C@H](CCC(N)=O)NC(=O)[C@H](C)NC(=O)[C@H](CCCNC(=N)N)NC(=O)[C@H](CCCCNC(=O)COCCOCCNC(=O)COCCOCCNC(=O)CC[C@H](NC(=O)CCCCCCCCCCCCCCCCC(=O)O)C(=O)O)NC(=O)[C@H](CCCCN)NC(=O)[C@H](CC(=O)O)NC(=O)[C@H](CC(C)C)NC(=O)[C@](C)(Cc1ccccc1)NC(=O)[C@H](CCCCN)NC(=O)[C@H](CO)NC(=O)[C@@H](NC(=O)[C@H](CC(=O)O)NC(=O)[C@H](CO)NC(=O)[C@@H](NC(=O)[C@H](Cc1ccccc1)NC(=O)[C@@H](NC(=O)CNC(=O)[C@H](CCC(N)=O)NC(=O)C(C)(C)NC(=O)[C@@H](N)Cc1c[nH]cn1)[C@@H](C)O)[C@@H](C)O)C(C)C)C(C)C)C(=O)N[C@@H](CCCCN)C(=O)NC(C)(C)C(=O)N[C@H](C(=O)N[C@@H](CCC(=O)O)C(=O)O)[C@@H](C)O [Peptide 423] (H-H[Aib]QGTFTSDVSK[αMeF]LDKK([AEEA-AEEA-γGlu-C18 diacid])RAQDFVRWLK[Aib]TE-OH; N-terminus assumed) | 0.0261 | 168.1 | 2.22
2 | CC(C)C[C@H](NC(=O)[C@H](Cc1c[nH]c2ccccc12)NC(=O)[C@H](CCCNC(=N)N)NC(=O)[C@@H](NC(=O)[C@H](Cc1ccccc1)NC(=O)[C@H](CC(=O)O)NC(=O)[C@H](CCC(N)=O)NC(=O)[C@H](C)NC(=O)[C@H](CCCNC(=N)N)NC(=O)[C@H](CCCCNC(=O)COCCOCCNC(=O)COCCOCCNC(=O)CC[C@H](NC(=O)CCCCCCCCCCCCCCCCC(=O)O)C(=O)O)NC(=O)[C@H](CCCCN)NC(=O)[C@H](CC(=O)O)NC(=O)[C@H](CC(C)C)NC(=O)[C@](C)(Cc1ccccc1)NC(=O)[C@H](CCCCN)NC(=O)[C@H](CO)NC(=O)[C@@H](NC(=O)[C@H](CC(=O)O)NC(=O)[C@H](CO)NC(=O)[C@@H](NC(=O)[C@H](Cc1ccccc1)NC(=O)[C@@H](NC(=O)CNC(=O)[C@H](CCC(N)=O)NC(=O)C(C)(C)NC(=O)[C@@H](N)Cc1c[nH]cn1)[C@@H](C)O)[C@@H](C)O)C(C)C)C(C)C)C(=O)N[C@@H](CC(C)C)C(=O)NC(C)(C)C(=O)N[C@H](C(=O)N[C@@H](CCCCN)C(=O)O)[C@@H](C)O [Peptide 424] (H-H[Aib]QGTFTSDVSK[αMeF]LDKK([AEEA-AEEA-γGlu-C18 diacid])RAQDFVRWLL[Aib]TK-OH; N-terminus assumed) | 0.0155 | 16.5 | 0.129
3 | CC(C)C[C@H](NC(=O)[C@H](Cc1c[nH]c2ccccc12)NC(=O)[C@H](CCCNC(=N)N)NC(=O)[C@@H](NC(=O)[C@H](Cc1ccccc1)NC(=O)[C@H](CC(=O)O)NC(=O)[C@H](CCC(N)=O)NC(=O)[C@H](C)NC(=O)[C@H](CCCNC(=N)N)NC(=O)[C@H](CCCCNC(=O)COCCOCCNC(=O)COCCOCCNC(=O)CC[C@H](NC(=O)CCCCCCCCCCCCCCCCC(=O)O)C(=O)O)NC(=O)[C@H](CCCCN)NC(=O)[C@H](CC(=O)O)NC(=O)[C@H](CC(C)C)NC(=O)[C@](C)(Cc1ccccc1)NC(=O)[C@H](CCCCN)NC(=O)[C@H](CO)NC(=O)[C@@H](NC(=O)[C@H](CC(=O)O)NC(=O)[C@H](CO)NC(=O)[C@@H](NC(=O)[C@H](Cc1ccccc1)NC(=O)[C@@H](NC(=O)CNC(=O)[C@H](CCC(N)=O)NC(=O)C(C)(C)NC(=O)[C@@H](N)Cc1c[nH]cn1)[C@@H](C)O)[C@@H](C)O)C(C)C)C(C)C)C(=O)N[C@@H](CCCCN)C(=O)N[C@@H](C)C(=O)NC(C)(C)C(=O)NCC(=O)O [Peptide 425] (H-H[Aib]QGTFTSDVSK[αMeF]LDKK([AEEA-AEEA-γGlu-C18 diacid])RAQDFVRWLKA[Aib]G-OH; N-terminus assumed) | 0.0115 | 142.3 | 0.827
4 | CC(C)C[C@H](NC(=O)[C@H](Cc1c[nH]c2ccccc12)NC(=O)[C@H](CCCNC(=N)N)NC(=O)[C@@H](NC(=O)[C@H](Cc1ccccc1)NC(=O)[C@H](CC(=O)O)NC(=O)[C@H](CCC(N)=O)NC(=O)[C@H](C)NC(=O)[C@H](CCCNC(=N)N)NC(=O)[C@H](CCCCNC(=O)COCCOCCNC(=O)COCCOCCNC(=O)CC[C@H](NC(=O)CCCCCCCCCCCCCCCCC(=O)O)C(=O)O)NC(=O)[C@H](CCCCN)NC(=O)[C@H](CC(=O)O)NC(=O)[C@H](CC(C)C)NC(=O)[C@](C)(Cc1ccccc1)NC(=O)[C@H](CCCCN)NC(=O)[C@H](CO)NC(=O)[C@@H](NC(=O)[C@H](CC(=O)O)NC(=O)[C@H](CO)NC(=O)[C@@H](NC(=O)[C@H](Cc1ccccc1)NC(=O)[C@@H](NC(=O)CNC(=O)[C@H](CCC(N)=O)NC(=O)C(C)(C)NC(=O)[C@@H](N)Cc1c[nH]cn1)[C@@H](C)O)[C@@H](C)O)C(C)C)C(C)C)C(=O)N[C@@H](CC(C)C)C(=O)N[C@@H](CCCNC(=N)N)C(=O)NC(C)(C)C(=O)N[C@@H](CCCCN)C(=O)O [Peptide 426] (H-H[Aib]QGTFTSDVSK[αMeF]LDKK([AEEA-AEEA-γGlu-C18 diacid])RAQDFVRWLLR[Aib]K-OH; N-terminus assumed) | 0.0073 | 16.6 | 0.0612
5 | CC(C)C[C@H](NC(=O)[C@H](Cc1c[nH]c2ccccc12)NC(=O)[C@H](CCC(N)=O)NC(=O)[C@@H](NC(=O)[C@H](Cc1ccccc1)NC(=O)[C@H](CC(=O)O)NC(=O)[C@H](CCCNC(=N)N)NC(=O)[C@H](C)NC(=O)[C@H](CCCNC(=N)N)NC(=O)[C@H](CCCCNC(=O)COCCOCCNC(=O)COCCOCCNC(=O)CC[C@H](NC(=O)CCCCCCCCCCCCCCCCC(=O)O)C(=O)O)NC(=O)[C@@H](NC(=O)[C@H](CC(=O)O)NC(=O)[C@H](CC(C)C)NC(=O)[C@](C)(Cc1ccccc1)NC(=O)[C@H](CCCCN)NC(=O)[C@H](CO)NC(=O)[C@@H](NC(=O)[C@H](CC(=O)O)NC(=O)[C@H](CO)NC(=O)[C@@H](NC(=O)[C@H](Cc1ccccc1)NC(=O)[C@@H](NC(=O)CNC(=O)[C@H](CCC(N)=O)NC(=O)C(C)(C)NC(=O)[C@@H](N)Cc1c[nH]cn1)[C@@H](C)O)[C@@H](C)O)C(C)C)[C@@H](C)O)C(C)C)C(=O)N[C@@H](CC(C)C)C(=O)N[C@@H](CCC(=O)O)C(=O)NC(C)(C)C(=O)NCC(N)=O [Peptide 427] | 0.0124 | 7.5 | 0.0472
6 | CC(C)C[C@H](NC(=O)[C@H](Cc1c[nH]c2ccccc12)NC(=O)[C@H](CCC(N)=O)NC(=O)[C@@H](NC(=O)[C@H](Cc1ccccc1)NC(=O)[C@H](CC(=O)O)NC(=O)[C@H](CCCNC(=N)N)NC(=O)[C@H](C)NC(=O)[C@H](CCCNC(=N)N)NC(=O)[C@H](CCCCNC(=O)COCCOCCNC(=O)COCCOCCNC(=O)CC[C@H](NC(=O)CC[C@H](NC(=O)CCCCCCCCCCCCCCCCC(=O)O)C(=O)O)C(=O)O)NC(=O)[C@@H](NC(=O)[C@H](CC(=O)O)NC(=O)[C@H](CC(C)C)NC(=O)[C@](C)(Cc1ccccc1)NC(=O)[C@H](CCCCN)NC(=O)[C@H](CO)NC(=O)[C@@H](NC(=O)[C@H](CC(=O)O)NC(=O)[C@H](CO)NC(=O)[C@@H](NC(=O)[C@H](Cc1ccccc1)NC(=O)[C@@H](NC(=O)CNC(=O)[C@H](CCC(N)=O)NC(=O)C(C)(C)NC(=O)[C@@H](N)Cc1c[nH]cn1)[C@@H](C)O)[C@@H](C)O)C(C)C)[C@@H](C)O)C(C)C)C(=O)N[C@@H](CC(C)C)C(=O)N[C@@H](CCC(=O)O)C(=O)NC(C)(C)C(=O)NCC(N)=O [Peptide 428] | 0.0331 | 0.6 | 0.0105
7 | CC(C)C[C@H](NC(=O)[C@H](Cc1c[nH]c2ccccc12)NC(=O)[C@H](CCCNC(=N)N)NC(=O)[C@@H](NC(=O)[C@H](Cc1ccccc1)NC(=O)[C@H](CC(=O)O)NC(=O)[C@H](CCC(N)=O)NC(=O)[C@H](C)NC(=O)[C@H](CCCNC(=N)N)NC(=O)[C@H](CCCCNC(=O)COCCOCCNC(=O)COCCOCCNC(=O)CC[C@H](NC(=O)CCCCCCCCCCCCCCCCC(=O)O)C(=O)O)NC(=O)[C@H](CO)NC(=O)[C@H](CC(=O)O)NC(=O)[C@H](CC(C)C)NC(=O)[C@](C)(Cc1ccccc1)NC(=O)[C@H](CCCCN)NC(=O)[C@H](CO)NC(=O)[C@@H](NC(=O)[C@H](CC(=O)O)NC(=O)[C@H](CO)NC(=O)[C@@H](NC(=O)[C@H](Cc1ccccc1)NC(=O)[C@@H](NC(=O)CNC(=O)[C@H](CCC(N)=O)NC(=O)C(C)(C)NC(=O)[C@@H](N)Cc1c[nH]cn1)[C@@H](C)O)[C@@H](C)O)C(C)C)C(C)C)C(=O)N[C@@H](CCC(=O)O)C(=O)N[C@@H](C)C(=O)NC(C)(C)C(=O)NCC(N)=O [Peptide 429] (H-H[Aib]QGTFTSDVSK[αMeF]LDSK([AEEA-AEEA-γGlu-C18 diacid])RAQDFVRWLEA[Aib]G-NH2; N-terminus assumed) | 0.015 | 19.0 | 0.144
